Experimental data reported in patent publication US8729034B2, “Pharmaceutical composition having virucidal and spermicidal activity” (priority 2007, dated 2014).
“And” between values parts separate entries of the source, which are not always exact repeats. Equal values may be shown once.

Columns and labels:
[1] = test system: Lactobacillus acidophilus; type: cell-based
Description: The media for culture of bacteria purchased from HI-MEDIA, India and spores of Lactobacillus acidophilus were obtained from pharmaceutical capsule marketed by Infer (India) Limited.
Sterile, molten (45-50 degree C.) Lactobacilli MRS agar was poured into sterile Petri dishes with (a) 1, 10, 100, 200, 500 mg of Ac-B (Experimental) and (b) without Ac-B (Control). The plates were placed within an incubator having 37 degree C. inside temperature and 5% CO2 in air for 72 hours. The number of colonies and their individual size were compared.

human spermatozoa = assay: Sander & Cramer spermicidal assay (in vitro); type: cell-based
Description: The exudates/liquefied human semen samples were suspended in BWW medium (pre equilibrated at 37 degree C.). The spermatozoa with forward motility were separated from immotile or sluggishly motile cells by the swim-up technique and were allowed to disperse evenly within a CO2 incubator at 37 degree C. At least five aliquots from each sample was used to prepare the working spermatozoa suspension. The swim up procedure was as follows:
Pre equilibrated BWW medium (1.25 ml) was gently layered over cauda-exudates or liquefied human semen (1 ml) in a sterile 15 ml conical-based centrifuge tube. The tube was inclined at an angle of 45 degree and incubated for 1 hour at 37 degree C. in a CO2-incubator. It was then gently returned to the upright position and the uppermost 1 ml medium with a turbid appearance was removed. This aliquot of motile cells was pooled from each set, then diluted with same volumes of pre equilibrated BWW medium, centrifuged at 500 g for 5 minutes and finally resuspended in 1 ml pre equilibrated BWW medium to obtain a working suspension. The sperm cells were counted in a Makler chamber (Zygotec Systems, Springfield, M A, USA) and finally a working spermatozoa suspension having concentration of 25 to 30×10^6 cells/ml was prepared.
For in vitro assay of spermicidal effect, sperms collected from proven male rats and mice, and motile spermatozoa from liquefied human semen were used.
The assay was done following the Sander & Cramer assay method. Two hundred micro liter (200 microliters) of working spermatozoa suspension was added to 1 ml solution of test material in BWW medium and mixed on a light vortex for 10 seconds. A wet mount was immediately prepared on a clean microscopy glass slide and examined (at ×100) under a phase contrast microscope (Leitz, Biomed). The weakest concentration that immobilized all spermatozoa within 20 seconds of mixing was recorded as MEC. At least five fields were examined for each wet mount preparation. The observation was repeated with five individual spermatozoa suspension for each concentration of test compound solution. For negative control, saponin solutions were replaced by equal volume of BWW medium, while Nonoxynol 9 was used as positive control.

HIV = assay: Inactivation of HIV in vitro (summary statements); type: cell-based
Description: Human CD4+ T cell line CEM-GFP cells were infected with HIV-1 NL-4.3 virus pretreated without or with Ac-B at varying concentrations (1 hour at 37 degree C.) at a multiplicity of infection (MOI) of 0.01. The cells were then cultured in the presence or absence of Ac-B for up to 7 days post infection. Virus production was analyzed in the culture supernatant on day-7 post infection by p24 antigen capture ELISA
P4 (Hela-CD4-LTR-β Gal) cells were infected with 0.05 MOI of NL4.3 virus pretreated without or with Ac-B at varying concentrations (1 hour at 37 degree C.) followed by incubation for 48 hours in the presence or absence of Ac-B at a concentration of 0.5 to 2.5 microgram per ml. Virus production was analyzed by ELISA of p24 antigen in the culture supernatant. Viral transmission in the transfected cells was evaluated by X-gal staining, in which an antiretroviral therapeutic drug, Azidothymidine (AZT) was used as positive control.

human sperm [2] = assay: Electron microscopy of treated sperm (TEM/SEM); type: cell-based; settings: Ac-B-treated human sperm
Description: For electron microscopy, the suspending medium was replaced with 0.1M phosphate buffer (pH 7.0). A concentrated untreated (control) and Ac-B-treated (experimental) human sperm suspension were mixed with 2% glutaraldehyde in phosphate buffer for fixation at 4 degree C. for 4 hours. After three successive washings in buffer at room temperature, post-fixation was done by 1% osmium tetroxide. Thirty minutes after post-fixation, the spermatozoa were quickly washed with phosphate buffer and end block staining was done by saturated urenyl acetate solution. Dehydration of the fixed spermatozoa was done in graded (50%, 70%, 90% and 100%) ethyl alcohol. A portion of each set of dehydrated sperms were embedded in spur and blocks were prepared for ultra-thin sectioning. Ultra-thin sections were prepared in LKB Ultramicrotome using a diamond knife. Finally the thin sections were stained with urenyl acetate and freshly prepared lead citrate. The stained sections were thoroughly examined under TECHNI G2 BIOTWEEN transmission electron microscope (at ×25000). The rest of the dehydrated sperm sets were prepared for examination under tescan scanning electron microscope.

human sperm [3] = assay: Modified Kremer-Test, cervical mucus penetration (Experiment B); type: cell-based; settings: treated at MEC; 30 minutes at 37 degree C
Description: A modified Kremer-Test was used for assessment of cervical mucus penetrating capacity of treated sperm. A drop of human mid-cycle cervical mucus was placed on a slide and flattened by a cover slip (22 mm×22 mm). A drop of human sperm suspension treated with the test compounds (at MEC) was deposited at the side of the cover slip and in contact with the edge, the sperm suspension moved in under the cover slip by capillary force and a clear interface was obtained between the sperm suspension and the cervical mucus. The slide preparation was placed within a CO2 incubator at 37 degree C. for 30 minutes. Suitable control sets were prepared side by side. Each preparation was examined under a phase contrast microscope to observe the entry of spermatozoa into the cervical mucus zone.

female rabbits = assay: Contraceptive efficacy following intravaginal application in rabbits; type: in vivo, New Zealand Rabbits; settings: intra-vaginal
Description: Healthy virgin, nulliparous female rabbits were primed with PMSG (200 i.u.; i.p.; 96 hrs prior to testing) to induce ovulation. Serial dilutions (2.5 mg/ml, 10 mg/ml, 25 mg/ml and 50 mg/ml) of Ac-B in KY-jelly was prepared to be used as test solutions and only KY-jelly was used for control group. Two ml of test/control solution was introduced 6-8 cm deep into the vagina of each rabbit with by the syringe with gavaging needle. The animal was held in supine position for about five minutes and then hand-mated by the selected proven bucks. The buck was allowed one-time mating. To ensure ovulation 100 i.u. of hCG was administered through the marginal ear vein of each participating doe. The vaginal lavage of the mated doe was examined under a microscope. The presence of spermatozoa in the lavage was considered as confirmed mating. The mated does were kept in separate cages to complete their gestation period and the number of delivered pups was recorded. The mean value of the pups was calculated to determine the contraceptive potential.

Substance: Acaciaside-B [Ac-B]
- Dose level not affecting growth of Lactobacillus acidophilus [1]: ≥ 500 mg/mL
- Size of Lactobacillus colonies grown in the presence of Ac-B [1]: comparable to that of control
- MEC as per Sander and Cramer Test (human spermatozoa; Human spermatozoa (N = 5), weakest concentration immobilizing all spermatozoa within 20 seconds): 125 microgram per ml and 125 (±7) microgram per ml
- EC50 for spermicidal activity in vitro (human spermatozoa; human sperm): 22 microgram per ml
- MEC for spermicidal action (human spermatozoa; human sperm): 125 microgram
- MEC for spermicidal activity (human spermatozoa; human sperm): 125 micro g/ml
- MEC, spermicidal (human spermatozoa; human sperm): 125 µg/mL
- Dose level preventing HIV infection in vitro (HIV): greater than or equal to 1.0 microgram per ml
- Electron microscopic finding on plasma membrane (TEM) (human sperm [2]): vesiculization/vacuolization of the plasma membrane leading to its disintegration
- Entry of treated spermatozoa into human cervical mucus (human sperm [3]): none of them crossed into the interface
- Mean numbers of pups delivered (female rabbits; 2 ml of 2.5 mg/ml Acaciaside-B in K-Y jelly (n = 5)): 3.4
- Mean numbers of pups delivered (female rabbits; 2 ml of 10 mg/ml Acaciaside-B in K-Y jelly (n = 5)): 2.2
- Mean numbers of pups delivered (female rabbits; 2 ml of 25 mg/ml Acaciaside-B in K-Y jelly (n = 5)): 0.2
- Mean numbers of pups delivered (female rabbits; 2 ml of 50 mg/ml Acaciaside-B in K-Y jelly (n = 5)): 0.0
